The target of test [1] is T1, TRPV3 (Homo sapiens, UniProt Q8NET8).
T1 sequence (Q8NET8 1-790): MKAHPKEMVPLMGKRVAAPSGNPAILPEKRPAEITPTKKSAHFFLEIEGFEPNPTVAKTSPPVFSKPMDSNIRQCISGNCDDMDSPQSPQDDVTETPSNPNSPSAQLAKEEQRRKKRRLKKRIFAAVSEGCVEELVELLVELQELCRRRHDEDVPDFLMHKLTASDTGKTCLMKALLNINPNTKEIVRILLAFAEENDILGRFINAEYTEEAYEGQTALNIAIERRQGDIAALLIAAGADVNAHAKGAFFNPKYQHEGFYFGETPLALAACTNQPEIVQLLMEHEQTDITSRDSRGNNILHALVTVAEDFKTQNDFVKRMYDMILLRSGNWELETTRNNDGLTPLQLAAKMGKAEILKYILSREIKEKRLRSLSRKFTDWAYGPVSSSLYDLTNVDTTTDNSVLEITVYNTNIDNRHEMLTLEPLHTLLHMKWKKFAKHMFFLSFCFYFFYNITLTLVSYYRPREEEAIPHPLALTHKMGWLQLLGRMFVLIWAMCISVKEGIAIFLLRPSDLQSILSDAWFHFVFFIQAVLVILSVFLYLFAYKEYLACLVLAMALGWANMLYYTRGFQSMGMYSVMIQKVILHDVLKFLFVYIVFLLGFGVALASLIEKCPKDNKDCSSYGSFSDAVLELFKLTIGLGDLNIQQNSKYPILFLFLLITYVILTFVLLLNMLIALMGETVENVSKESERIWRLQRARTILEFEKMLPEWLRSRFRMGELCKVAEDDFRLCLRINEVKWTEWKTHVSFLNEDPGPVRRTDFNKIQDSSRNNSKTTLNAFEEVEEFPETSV
The test can be described thus: Whole-cell patch-clamp, 2-APB-evoked TRPV3 current in normal human epidermal keratinocytes (NHEK). The test is classed as cell-based. The arrangement: host or cells: NHEK. The note with it: 100 µM 2-APB, −100 mV, read-out: TRPV3 current inhibited to (normalized to maximum 2-APB response). (In general: Patch clamp records ionic current or voltage across a cell membrane.)

The target in test [2] is T1, TRPV3. Description: Fura-2 calcium imaging, carvacrol-induced Ca2+ increase in hTRPV3-overexpressing HEK 293T cells. The arrangement: expressed in transfected cells. The test is classed as cell-based. The note with it: 300 µM carvacrol; for ∆(F340/F380): control 0.424 ± 0.032. As for the experimental part:
Since the TRPV3-mediated calcium influx is reported to contribute to proper skin function, we investigated whether alpha-mangostin inhibits the intracellular calcium increase induced by carvacrol in hTRPV3-overexpressing HEK 293T cells and keratinocytes. […] In hTRPV3-overexpressing HEK 293T cells, ∆(F340/F380) decreased by approximately 25% and 70% upon exposure to 0.3 µM and 3 µM alpha-mangostin, respectively (Figure 3A, 0.424 ± 0.032 vs. 0.316 ± 0.030 and 0.144 ± 0.006, respectively).
Figure 3 Alpha-mangostin (α-MG) inhibited TRPV3-mediated intracellular calcium increase. Cells were perfused with solutions containing 0.3 µM, 3 µM alpha-mangostin or 10 µM 74a before the addition of 300 µM carvacrol (red, green, and blue lines, respectively). Cells only perfused with normal Tyrode (NT) solution in the presence (black line) or absence (purple line) of 300 µM carvacrol were employed as the control. (A) Alpha-mangostin inhibited TRPV3-mediated intracellular calcium increase in response to carvacrol in TRPV3-overexpressing HEK 293T cells. […] The bar graph on the bottom summarizes the change in the intracellular calcium rise inhibited by alpha-mangostin. (B) Alpha-mangostin inhibited TRPV3-mediated intracellular calcium increase in response to carvacrol in normal human epidermal keratinocytes (NHEK). […] The bar graph on the bottom summarizes the change in the intracellular calcium rise inhibited by alpha-mangostin. Data are presented as means ± SEM. ** p < 0.01, *** p < 0.001, **** p < 0.0001.
Fura-2 AM (Thermo Fisher Scientific) was utilized as a fluorescent indicator to measure calcium signal, as described previously. Fura-2 acetoxymethyl ester (Fura-2 AM) is a widely used fluorescent calcium indicator. After crossing the cell membrane and entering the cytosol, Fura-2 AM is cleaved into its activated form, Fura-2 [49]. After binding to the cytosolic free Ca^2+, the peak excitation of Fura-2 shifts from 380 nm (Ca^2+-free state) to 340 nm (Ca^2+-bound state), while the peak emission remains unchanged at around 510 nm. To measure the cytosolic Ca^2+ level, a sequential excitation of Fura-2 is performed at 340 nm and 380 nm; then, the emission signals resulting from each excitation wavelength are measured and the ratio of these signals is calculated. […] Samples were excited using a wavelength of 380 nm for 20 ms, followed by 340 nm for 100 ms, and fluorescence at 510 nm was recorded. Recorded data were then analyzed using NIS-Element AR Version 5.00.00 (Nikon Instruments, Melville, NY, USA).
The change in the fluorescence ratio when the cells were excited at 340 nm and 380 nm (ΔF340/380) during the measurements was calculated by subtracting the ratio obtained at the beginning of the experiment from each subsequent ratio obtained at different time points. […]

Structures are written as SMILES.

As for `COc1c(O)cc2oc3cc(O)c(CC=C(C)C)c(O)c3c(=O)c2c1CC=C(C)C` [Alpha-mangostin], in test [1] (0.3 µM), the activity at 0.3 µM amounted to 75.1%. Moreover, in test [1] (3 µM), the activity at 3 µM was 27%. In addition, in test [2] (0.3 µM), the “Decrease of ∆(F340/F380)” value is “approximately 25%” and the “∆(F340/F380)” value worked out at 0.316 ± 0.030. Besides, in test [2] (3 µM), the “Decrease of ∆(F340/F380)” value is recorded as approximately 70% and the “∆(F340/F380)” value was determined as 0.144 ± 0.006.

These data come from PMC10455244, “Alpha-Mangostin: A Potent Inhibitor of TRPV3 and Pro-Inflammatory Cytokine Secretion in Keratinocytes” (International Journal of Molecular Sciences, 2023).
